Assay results taken from patent US6670446B1, “N1 modified glycopeptides” (Eli Lilly and Company, priority 1998, dated 2003).

Assays:
Format in all cases: cell-based
[1] = system: Staphylococcus aureus S13E
Procedure: (§1) The antibacterial efficacy of the present compounds is illustrated by Table III. The minimal inhibitory concentrations (MICs) were determined using a standard broth micro-dilution assay.

[2] = system: Staphylococcus aureus X778; assay: MIC, standard broth micro-dilution assay, SA X778
Procedure: as §1

[3] = system: Enterococcus faecalis 276; assay: MIC, standard broth micro-dilution assay, EF 276
Procedure: as §1

[4] = system: Enterococcus gallinarum 245; assay: MIC, standard broth micro-dilution assay, EG 245
Procedure: as §1

[5] = system: Staphylococcus aureus X400; assay: MIC, standard broth micro-dilution assay, SA X400
Procedure: as §1

[6] = system: Staphylococcus aureus SA1199A; assay: MIC, standard broth micro-dilution assay, SA 1199A
Procedure: as §1

[7] = system: Staphylococcus aureus 447; assay: MIC, standard broth micro-dilution assay, SA 447
Procedure: as §1

[8] = system: Resistant Enterococcus faecium and faecalis; assay: MIC, standard broth micro-dilution assay, Resistant; settings: geometric mean of 4-6 isolates
Procedure: as §1

[9] = system: Staphylococcus haemolyticus 105; assay: MIC, standard broth micro-dilution assay, SH 105
Procedure: as §1

[10] = system: Haemophilus influenzae RD; assay: MIC, standard broth micro-dilution assay, HFRD
Procedure: as §1

[11] = system: Enterococcus faecalis 2041; assay: MIC, standard broth micro-dilution assay, EF 2041
Procedure: as §1

[12] = system: Enterococcus faecium 180-1; assay: MIC, standard broth micro-dilution assay, EF 180-1
Procedure: as §1

Enterococcus faecium 180 = assay: MIC, standard broth micro-dilution assay, EF 180
Procedure: as §1

Escherichia coli EC14 = assay: MIC, standard broth micro-dilution assay, EC 14
Procedure: as §1

[13] = system: Staphylococcus aureus 446; assay: MIC, standard broth micro-dilution assay, SA 446
Procedure: as §1

[14] = system: Staphylococcus aureus 489; assay: MIC, standard broth micro-dilution assay, SA 489
Procedure: as §1

[15] = system: Staphylococcus haemolyticus 415; assay: MIC, standard broth micro-dilution assay, SH 415
Procedure: as §1

[16] = system: Staphylococcus aureus 491; assay: MIC, standard broth micro-dilution assay, SA 491
Procedure: as §1

[17] = system: Staphylococcus aureus SA1199; assay: MIC, standard broth micro-dilution assay, SA 1199
Procedure: as §1

[18] = system: Staphylococcus epidermidis 270; assay: MIC, standard broth micro-dilution assay, SE 270
Procedure: as §1

[19] = system: Sensitive Enterococcus faecium and faecalis; assay: MIC, standard broth micro-dilution assay, Sensitive; settings: geometric mean of 4-6 isolates
Procedure: as §1

| SMILES | minimal inhibitory concentration (MIC), SA S13E [1] | minimal inhibitory concentration (MIC), SA X778 [2] | minimal inhibitory concentration (MIC), EF 276 [3] | minimal inhibitory concentration (MIC), EG 245 [4] | minimal inhibitory concentration (MIC), SA X400 [5] | minimal inhibitory concentration (MIC), SA 1199A [6] | minimal inhibitory concentration (MIC), SA 447 [7] | minimal inhibitory concentration (MIC), Resistant [8] | minimal inhibitory concentration (MIC), SH 105 [9] | minimal inhibitory concentration (MIC), HFRD [10] | minimal inhibitory concentration (MIC), EF 2041 [11] | minimal inhibitory concentration (MIC), EF 180-1 [12] | minimal inhibitory concentration (MIC), EF 180 (Enterococcus faecium 180) | minimal inhibitory concentration (MIC), EC 14 (Escherichia coli EC14) | minimal inhibitory concentration (MIC), SA 446 [13] | minimal inhibitory concentration (MIC), SA 489 [14] | minimal inhibitory concentration (MIC), SH 415 [15] | minimal inhibitory concentration (MIC), SA 491 [16] | minimal inhibitory concentration (MIC), SA 1199 [17] | minimal inhibitory concentration (MIC), SE 270 [18] | also measured |
| --- | --- | --- | --- | --- | --- | --- | --- | --- | --- | --- | --- | --- | --- | --- | --- | --- | --- | --- | --- | --- | --- |
| CC1OC(OC2c3ccc(c(Cl)c3)Oc3cc4cc(c3OC3OC(CO)C(O)C(O)C3OC3CC(C)(NCc5ccc(-c6ccccc6)cc5)C(O)C(C)O3)Oc3ccc(cc3Cl)C(O)C(NC(=O)C3CCCN3)C(=O)NC(CC(N)=O)C(=O)NC4C(=O)NC3C(=O)NC2C(=O)NC(C(=O)O)c2cc(O)cc(O)c2-c2cc3ccc2O)CC(C)(N)C1O [Example 12, N^1-D-proline derivative of N^DISACC-(p-phenylbenzyl)desleucylA82846B] | 2 | 0.25 | 1 | 0.25 | 1 | 0.25 | 0.5 | 2.8 | 0.125 | 32 | 0.25 | ≦.06 | 1 | >64 | 2 | 2 | 0.25 | 0.5 | 1 | 0.125 | minimal inhibitory concentration (MIC), Sensitive [19]: 0.19 |
| CC(C)CC(N)C(=O)NC1C(=O)NC(CC(N)=O)C(=O)NC2C(=O)NC3C(=O)NC(C(=O)NC(C(=O)O)c4cc(O)cc(O)c4-c4cc3ccc4O)C(OC3CC(C)(N)C(O)C(C)O3)c3ccc(c(Cl)c3)Oc3cc2cc(c3OC2OC(CO)C(O)C(O)C2OC2CC(C)(NCc3ccc(-c4ccccc4)cc3)C(O)C(C)O2)Oc2ccc(cc2Cl)C1O [Example 13, N^1-D-leucine derivative of N^DISACC-(p-phenylbenzyl)desleucylA82846B] | 0.5 | 1 | 0.5 | ≦.06 | 0.5 | 0.25 | 1 | 2.4 | 1 | 16 | ≦.06 | ≦.06 | 0.25 | >64 | 1 | 0.5 | 0.5 | 1 | 1 | 0.25 | minimal inhibitory concentration (MIC), Sensitive [19]: 0.095 |
| CSCCC(NC(=O)OC(C)(C)C)C(=O)NC1C(=O)NC(CC(N)=O)C(=O)NC2C(=O)NC3C(=O)NC(C(=O)NC(C(=O)O)c4cc(O)cc(O)c4-c4cc3ccc4O)C(OC3CC(C)(N)C(O)C(C)O3)c3ccc(c(Cl)c3)Oc3cc2cc(c3OC2OC(CO)C(O)C(O)C2OC2CC(C)(NCc3ccc(-c4ccccc4)cc3)C(O)C(C)O2)Oc2ccc(cc2Cl)C1O [Example 15, N^1-(N-BOC-D-methionine) derivative of N^DISACC-(p-phenylbenzyl)desleucylA82846B] | 1 | 0.5 | 0.5 | 1 | 1 | 0.125 | 1 | 27 | 1 | >64 | 0.25 | ≦.06 | 8 | >64 | 1 | 1 | 1 | 1 | 2 | 0.25 | minimal inhibitory concentration (MIC), Sensitive [19]: 1.2 |
| CC(C)C[C@@H](N)C(=O)N[C@H]1C(=O)N[C@@H](CC(N)=O)C(=O)N[C@H]2C(=O)N[C@H]3C(=O)NC(C(=O)N[C@H](C(=O)O)c4cc(O)cc(O)c4-c4cc3ccc4O)[C@H](OC3CC(C)(N)C(O)C(C)O3)c3ccc(c(Cl)c3)Oc3cc2cc(c3OC2OC(CO)C(O)C(O)C2OC2CC(C)(N)C(O)C(C)O2)Oc2ccc(cc2Cl)[C@H]1O (stereo partly drawn) [Example 17, N^1-D-leucine derivative of desleucylA82846B] | 0.25 | 0.06 | 0.06 | 0.06 | 0.06 | ≦.06 | 0.5 | >32 | 0.5 | 32 | ≦.06 | ≦.06 | 1 | >64 | 0.5 | 0.06 | 1 | 0.125 | 0.25 | 0.25 | minimal inhibitory concentration (MIC), Sensitive [19]: 0.5 |
| CC(C)CC(NC(=O)OC(C)(C)C)C(=O)NC1C(=O)NC(CC(N)=O)C(=O)NC2C(=O)NC3C(=O)NC(C(=O)NC(C(=O)O)c4cc(O)cc(O)c4-c4cc3ccc4O)C(OC3CC(C)(N)C(O)C(C)O3)c3ccc(c(Cl)c3)Oc3cc2cc(c3OC2OC(CO)C(O)C(O)C2OC2CC(C)(NCc3ccc(-c4ccccc4)cc3)C(O)C(C)O2)Oc2ccc(cc2Cl)C1O [Example 18, N^1-(N-BOC-D-leucine) derivative of N^DISACC-(p-phenylbenzyl)desleucylA82846B] | 0.5 | 0.25 | 0.5 | 1 | 0.25 | no growth | 0.5 | 27 | 1 | 16 | ≦.06 | 0.5 | 2 | >64 | 0.5 | 0.125 | 1 | ≦.06 | 0.5 | 0.25 | minimal inhibitory concentration (MIC), Sensitive [19]: 0.87 |
